Legend:
Format in all cases: functional
[1] = tested on: Pseudoperonospora cubensis; assay: Fungicidal activity against Pseudoperonospora cubensis assessed as cucumber downy mildew disease control at 500 ppm foliar application 24 hr before inoculation onto the abaxial(treated) surface of leaf by preventive manner
[2] = tested on: Pseudoperonospora cubensis; assay: Fungicidal activity against Pseudoperonospora cubensis assessed as cucumber downy mildew disease control at 500 ppm foliar application 24 hr before inoculation onto the adaxial(treated) surface of leaf by preventive manner
Botrytis cinerea [3] = assay: Fungicidal activity against Botryotinia fuckeliana assessed as cucumber gray mold disease control at 500 ppm treated on upper surface of leaf 24 hr before inoculation at 22 +/- 2 degC measured after 3 days by preventive manner
Podosphaera fuliginea [4] = assay: Fungicidal activity against Podosphaera fuliginea assessed as cucumber powdery mildew disease control at 7.8 ppm treated on upper surface of leaf 24 hr before inoculation at 23 +/- 2 degC measured after 10 days by preventive manner
Botrytis cinerea [5] = assay: Fungicidal activity against Botryotinia fuckeliana assessed as cucumber gray mold disease control at 7.8 ppm treated on upper surface of leaf 24 hr before inoculation at 22 +/- 2 degC measured after 3 days by preventive manner
[6] = tested on: Pseudoperonospora cubensis; assay: Fungicidal activity against Pseudoperonospora cubensis assessed as cucumber downy mildew disease control at 125 ppm foliar application 24 hr before inoculation onto the adaxial(treated) surface of leaf by preventive manner
Podosphaera fuliginea [7] = assay: Fungicidal activity against Podosphaera fuliginea assessed as cucumber powdery mildew disease control at 500 ppm treated on upper surface of leaf 24 hr before inoculation at 23 +/- 2 degC measured after 10 days by preventive manner
Botrytis cinerea [8] = assay: Fungicidal activity against Botryotinia fuckeliana assessed as cucumber gray mold disease control at 31.3 ppm treated on upper surface of leaf 24 hr before inoculation at 22 +/- 2 degC measured after 3 days by preventive manner
[9] = tested on: Pseudoperonospora cubensis; assay: Fungicidal activity against Pseudoperonospora cubensis assessed as cucumber downy mildew disease control at 31.3 ppm foliar application 24 hr before inoculation onto the abaxial(treated) surface of leaf by preventive manner
[10] = tested on: Pseudoperonospora cubensis; assay: Fungicidal activity against Pseudoperonospora cubensis assessed as cucumber downy mildew disease control at 7.8 ppm foliar application 24 hr before inoculation onto the adaxial(treated) surface of leaf by preventive manner
[11] = tested on: Pseudoperonospora cubensis; assay: Fungicidal activity against Pseudoperonospora cubensis assessed as cucumber downy mildew disease control at 7.8 ppm foliar application 24 hr before inoculation onto the abaxial(treated) surface of leaf by preventive manner
Botrytis cinerea [12] = assay: Fungicidal activity against Botryotinia fuckeliana assessed as cucumber gray mold disease control at 125 ppm treated on upper surface of leaf 24 hr before inoculation at 22 +/- 2 degC measured after 3 days by preventive manner
[13] = tested on: Pseudoperonospora cubensis; assay: Fungicidal activity against Pseudoperonospora cubensis assessed as cucumber downy mildew disease control at 125 ppm foliar application 24 hr before inoculation onto the abaxial(treated) surface of leaf by preventive manner
Podosphaera fuliginea [14] = assay: Fungicidal activity against Podosphaera fuliginea assessed as cucumber powdery mildew disease control at 31.3 ppm treated on upper surface of leaf 24 hr before inoculation at 23 +/- 2 degC measured after 10 days by preventive manner
[15] = tested on: Pseudoperonospora cubensis; assay: Fungicidal activity against Pseudoperonospora cubensis assessed as cucumber downy mildew disease control at 2 ppm foliar application 24 hr after inoculation by curative manner
[16] = tested on: Pseudoperonospora cubensis; assay: Fungicidal activity against Pseudoperonospora cubensis assessed as cucumber downy mildew disease control at 7.8 ppm foliar application 24 hr after inoculation by curative manner
[17] = tested on: Pseudoperonospora cubensis; assay: Fungicidal activity against Pseudoperonospora cubensis assessed as cucumber downy mildew disease control at 31.3 ppm foliar application 24 hr after inoculation by curative manner
[18] = tested on: Pseudoperonospora cubensis; assay: Fungicidal activity against Pseudoperonospora cubensis assessed as cucumber downy mildew disease control at 125 ppm foliar application 24 hr after inoculation by curative manner
[19] = tested on: Pseudoperonospora cubensis; assay: Fungicidal activity against Pseudoperonospora cubensis assessed as cucumber downy mildew disease control at 2 ppm foliar application 24 hr before inoculation onto the abaxial(treated) surface of leaf by preventive manner
[20] = tested on: Pseudoperonospora cubensis; assay: Fungicidal activity against Pseudoperonospora cubensis assessed as cucumber downy mildew disease control at 2 ppm foliar application 24 hr before inoculation onto the adaxial(treated) surface of leaf by preventive manner
[21] = tested on: Pseudoperonospora cubensis; assay: Fungicidal activity against Pseudoperonospora cubensis assessed as cucumber downy mildew disease control at 31.3 ppm foliar application 24 hr before inoculation onto the adaxial(treated) surface of leaf by preventive manner

CNC(=O)C(OC)c1ccccc1CO/N=C(\C)c1cc(C)cc(C)c1C (racemic)
Activity [1]: <90%
Activity [2]: 90%
Activity (Botrytis cinerea [3]): 50%
Activity (Podosphaera fuliginea [4]): 90%

CNC(=O)C(OC)c1ccccc1CO/N=C(\C)c1ccc(-c2ccccc2)cc1 (racemic)
Activity [1]: <90%
Activity [2]: <90%
Activity (Botrytis cinerea [5]): 50%
Activity (Podosphaera fuliginea [4]): 90%

CNC(=O)C(OC)c1ccccc1CO/N=C(/C)c1ccc(C(F)(F)F)cc1 (racemic)
Activity [1]: <90%
Activity [6]: 90%
Activity (Botrytis cinerea [3]): 50%
Activity (Podosphaera fuliginea [4]): 90%

CNC(=O)C(OC)c1ccccc1Oc1ccccc1 (racemic)
Activity [1]: <90%
Activity [2]: <90%
Activity (Botrytis cinerea [3]): <50%
Activity (Podosphaera fuliginea [7]): <90%

CNC(=O)C(OC)c1ccccc1CO/N=C/c1ccccc1 (racemic)
Activity [1]: <90%
Activity [2]: <90%
Activity (Botrytis cinerea [3]): 50%
Activity (Podosphaera fuliginea [7]): <90%

CNC(=O)C(OC)c1ccccc1COCc1ccccc1 (racemic)
Activity [1]: <90%
Activity [2]: 90%
Activity (Botrytis cinerea [3]): <50%
Activity (Podosphaera fuliginea [7]): <90%

CNC(=O)C(OC)c1ccccc1CO/N=C(\C)c1ccc(C(C)(C)C)cc1 (racemic)
Activity [1]: <90%
Activity [2]: 90%
Activity (Botrytis cinerea [8]): 50%
Activity (Podosphaera fuliginea [4]): 90%

CNC(=O)C(OC)c1ccccc1CO/N=C(\C)c1cc(C)ccc1C (racemic)
Activity [1]: <90%
Activity [2]: 90%
Activity (Botrytis cinerea [3]): <50%
Activity (Podosphaera fuliginea [7]): 90%

CNC(=O)C(OC)c1ccccc1CO/N=C(\C)c1ccc(Br)cc1 (racemic)
Activity [9]: 90%
Activity [10]: 90%
Activity (Botrytis cinerea [5]): 50%
Activity (Podosphaera fuliginea [4]): 90%

CC/C(=N\OCc1ccccc1C(OC)C(=O)NC)c1ccc(Cl)cc1 (racemic)
Activity [11]: 90%
Activity [10]: 90%
Activity (Botrytis cinerea [5]): 50%
Activity (Podosphaera fuliginea [4]): 90%

CNC(=O)C(OC)c1ccccc1CO/N=C(\C)c1cccc(C(F)(F)F)c1 (racemic)
Activity [1]: 90%
Activity [10]: 90%
Activity (Botrytis cinerea [5]): 50%
Activity (Podosphaera fuliginea [4]): 90%

CNC(=O)C(OC)c1ccccc1CO/N=C(\C)c1ccc(O)cc1 (racemic)
Activity [1]: <90%
Activity [2]: 90%
Activity (Botrytis cinerea [3]): <50%
Activity (Podosphaera fuliginea [7]): <90%

CCC/C(=N\OCc1ccccc1C(OC)C(=O)NC)c1ccc(Cl)cc1 (racemic)
Activity [9]: 90%
Activity [10]: 90%
Activity (Botrytis cinerea [12]): 50%
Activity (Podosphaera fuliginea [4]): 90%

CCOc1ccc(/C(C)=N/OCc2ccccc2C(OC)C(=O)NC)cc1 (racemic)
Activity [1]: <90%
Activity [2]: 90%
Activity (Botrytis cinerea [8]): 50%
Activity (Podosphaera fuliginea [4]): 90%

CNC(=O)C(OC)c1ccccc1CO/N=C(\C)c1ccc(C)c(C)c1 (racemic)
Activity [13]: 90%
Activity [10]: 90%
Activity (Botrytis cinerea [8]): 50%
Activity (Podosphaera fuliginea [4]): 90%

CNC(=O)C(OC)c1ccccc1CO/N=C(\C)c1ccc(C)cc1C (racemic)
Activity [1]: 90%
Activity [6]: 90%
Activity (Botrytis cinerea [8]): 50%
Activity (Podosphaera fuliginea [14]): 90%

CNC(=O)C(OC)c1ccccc1CO/N=C(\C)c1ccc([N+](=O)[O-])cc1 (racemic)
Activity [1]: <90%
Activity [2]: 90%
Activity (Botrytis cinerea [12]): 50%
Activity (Podosphaera fuliginea [7]): 90%

CNC(=O)C(OC)c1ccccc1COC(=O)c1ccccc1 (racemic)
Activity [1]: <90%
Activity [2]: 90%
Activity (Botrytis cinerea [3]): <50%
Activity (Podosphaera fuliginea [7]): <90%

CNC(=O)C(OC)c1ccccc1CO/N=C(/SC)c1ccc(Cl)cc1 (racemic)
Activity [1]: 97%
Activity [13]: 64%
Activity [15]: 10%
Activity [16]: 35%
Activity [17]: 60%
Activity [18]: 87%
Activity [19]: 20%
Activity [9]: 50%
Activity [11]: 40%
Activity [20]: 100%
Activity [2]: 100%
Activity [6]: 100%
Activity [21]: 100%
Activity [10]: 100%
Activity (Botrytis cinerea [3]): 50%
Activity (Podosphaera fuliginea [14]): 90%

CNC(=O)C(OC)c1ccccc1CO/N=C(\C)c1cccc(Cl)c1 (racemic)
Activity [9]: 90%
Activity [10]: 90%
Activity (Botrytis cinerea [5]): 50%
Activity (Podosphaera fuliginea [4]): 90%

CNC(=O)C(OC)c1ccccc1CO/N=C(\C)c1ccc(Cl)cc1 (racemic)
Activity [1]: 97%
Activity [13]: 85%
Activity [15]: 0%
Activity [16]: 5%
Activity [17]: 50%
Activity [18]: 70%
Activity [19]: 0%
Activity [9]: 70%
Activity [11]: 0%
Activity [20]: 0%
Activity [2]: 100%
Activity [6]: 100%
Activity [21]: 100%
Activity [10]: 100%
Activity (Botrytis cinerea [5]): 50%
Activity (Podosphaera fuliginea [4]): 90%

CCc1ccc(/C(C)=N/OCc2ccccc2C(OC)C(=O)NC)cc1 (racemic)
Activity [1]: 90%
Activity [10]: 90%
Activity (Botrytis cinerea [5]): 50%
Activity (Podosphaera fuliginea [4]): 90%

CNC(=O)C(OC)c1ccccc1CO/N=C(/C)c1ccc(OC)cc1 (racemic)
Activity [1]: <90%
Activity [2]: 90%
Activity (Botrytis cinerea [3]): 50%
Activity (Podosphaera fuliginea [7]): 90%

CNC(=O)C(OC)c1ccccc1CO/N=C(\C)c1ccccc1 (racemic)
Activity [1]: <90%
Activity [2]: <90%
Activity (Botrytis cinerea [8]): 50%
Activity (Podosphaera fuliginea [14]): 90%

CNC(=O)C(OC)c1ccccc1CO/N=C(\C)c1ccc(Cl)c(Cl)c1 (racemic)
Activity [9]: 90%
Activity [10]: 90%
Activity (Botrytis cinerea [5]): 50%
Activity (Podosphaera fuliginea [4]): 90%

CNC(=O)C(OC)c1ccccc1CO/N=C(\C)c1ccccc1Cl (racemic)
Activity [1]: <90%
Activity [2]: 90%
Activity (Botrytis cinerea [3]): 50%
Activity (Podosphaera fuliginea [7]): 90%

CNC(=O)C(OC)c1ccccc1CO/N=C(\C)c1ccccc1C(F)(F)F (racemic)
Activity [1]: <90%
Activity [2]: <90%
Activity (Botrytis cinerea [3]): <50%
Activity (Podosphaera fuliginea [7]): 90%

CNC(=O)C(OC)c1ccccc1CO/N=C(\C)c1ccc(C)cc1 (racemic)
Activity [1]: 90%
Activity [10]: 90%
Activity (Botrytis cinerea [5]): 50%
Activity (Podosphaera fuliginea [4]): 90%

CNC(=O)C(OC)c1ccccc1CO/N=C(\C)c1ccc(F)cc1 (racemic)
Activity [9]: 90%
Activity [21]: 90%
Activity (Botrytis cinerea [8]): 50%
Activity (Podosphaera fuliginea [4]): 90%

CNC(=O)C(OC)c1ccccc1CO/N=C(\C)c1ccc(OC)cc1 (racemic)
Activity [1]: 90%
Activity [13]: 50%
Activity [15]: 0%
Activity [16]: 0%
Activity [17]: 20%
Activity [18]: 75%
Activity [19]: 0%
Activity [9]: 0%
Activity [11]: 0%
Activity [20]: 0%
Activity [2]: 100%
Activity [6]: 100%
Activity [21]: 100%
Activity [10]: 0%
Activity (Botrytis cinerea [5]): 50%
Activity (Podosphaera fuliginea [14]): 90%

CNC(=O)C(OC)c1ccccc1CO/N=C(/C)c1ccc(Cl)cc1 (racemic)
Activity [1]: <90%
Activity [6]: 90%
Activity (Botrytis cinerea [3]): 50%
Activity (Podosphaera fuliginea [14]): 90%

CNC(=O)C(OC)c1ccccc1CO/N=C(\C)c1ccc(Cl)cc1Cl (racemic)
Activity [1]: <90%
Activity (Botrytis cinerea [8]): 50%
Activity (Podosphaera fuliginea [14]): 90%

CCCCOc1ccc(/C(C)=N/OCc2ccccc2C(OC)C(=O)NC)cc1 (racemic)
Activity [1]: <90%
Activity [2]: 90%
Activity (Botrytis cinerea [8]): 50%
Activity (Podosphaera fuliginea [14]): 90%

CNC(=O)C(OC)c1ccccc1CO/N=C(\C)c1ccc(C(F)(F)F)cc1 (racemic)
Activity [1]: 100%
Activity [13]: 96%
Activity [15]: 25%
Activity [16]: 40%
Activity [17]: 70%
Activity [18]: 75%
Activity [19]: 15%
Activity [9]: 91%
Activity [11]: 40%
Activity [20]: 100%
Activity [2]: 100%
Activity [6]: 100%
Activity [21]: 100%
Activity [10]: 100%
Activity (Botrytis cinerea [5]): 50%
Activity (Podosphaera fuliginea [4]): 90%

From ChEMBL document CHEMBL3046629, “Fungicidal Activities of 2-Methoxy-2-[2-(benzylideneaminooxymethyl)phenyl]-N-methylacetamide Derivatives” (2002)
